Earlier results on one molecule are cited in EP2681209B1, “COMPOUNDS AND METHODS FOR THE TREATMENT OF PAIN AND OTHER DISORDERS” (Aquilus Pharmaceuticals, Inc, priority 2011, dated 2012).

The target of one series is MMP-9 (Homo sapiens, UniProt P14780). As to conditions: background literature; cited from earlier work.
The next series relates to TNF-alpha. The conditions noted are these: background literature; cited from earlier work.

Each structure is given as a SMILES string. pIC50: −log10 of the molar value.

Sequence of MMP-9 (P14780 94-707, species assumed): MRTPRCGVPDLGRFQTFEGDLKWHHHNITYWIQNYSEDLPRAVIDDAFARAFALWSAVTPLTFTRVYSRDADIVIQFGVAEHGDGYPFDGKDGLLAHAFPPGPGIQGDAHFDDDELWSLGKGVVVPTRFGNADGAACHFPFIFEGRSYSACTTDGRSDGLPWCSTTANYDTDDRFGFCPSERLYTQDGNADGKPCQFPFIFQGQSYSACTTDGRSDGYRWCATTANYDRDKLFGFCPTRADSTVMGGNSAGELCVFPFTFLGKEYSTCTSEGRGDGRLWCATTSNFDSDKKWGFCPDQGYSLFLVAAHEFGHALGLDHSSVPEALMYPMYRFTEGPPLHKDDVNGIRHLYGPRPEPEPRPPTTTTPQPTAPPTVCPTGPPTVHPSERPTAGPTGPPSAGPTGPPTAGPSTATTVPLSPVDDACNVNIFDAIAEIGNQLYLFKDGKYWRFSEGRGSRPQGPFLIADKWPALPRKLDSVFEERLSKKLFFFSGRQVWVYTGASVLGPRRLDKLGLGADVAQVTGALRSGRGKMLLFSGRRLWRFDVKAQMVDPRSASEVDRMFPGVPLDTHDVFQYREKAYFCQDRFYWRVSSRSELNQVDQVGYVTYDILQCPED

As to `CC(C)C[C@H](CC(=O)NO)C(=O)N[C@@H](Cc1ccc2ccccc2c1)C(=O)N[C@@H](C)C(N)=O` [TAPI-0], the pIC50 at MMP-9 was 9.30; in the series with TNF-alpha, roughly 7.00.

Broadly, the pIC50 is the negative decadic logarithm of the IC50, by convention in mol/L.
